Earlier results as cited in patent US20130053433A1, “FATTY ACID DERIVATIVES AND ANALOGS OF DRUGS” (The University of North Carolina at Chapel Hill, priority 2010, published 2013).

Target: albumin (Homo sapiens, UniProt P02768)
Sequence (P02768 25-609): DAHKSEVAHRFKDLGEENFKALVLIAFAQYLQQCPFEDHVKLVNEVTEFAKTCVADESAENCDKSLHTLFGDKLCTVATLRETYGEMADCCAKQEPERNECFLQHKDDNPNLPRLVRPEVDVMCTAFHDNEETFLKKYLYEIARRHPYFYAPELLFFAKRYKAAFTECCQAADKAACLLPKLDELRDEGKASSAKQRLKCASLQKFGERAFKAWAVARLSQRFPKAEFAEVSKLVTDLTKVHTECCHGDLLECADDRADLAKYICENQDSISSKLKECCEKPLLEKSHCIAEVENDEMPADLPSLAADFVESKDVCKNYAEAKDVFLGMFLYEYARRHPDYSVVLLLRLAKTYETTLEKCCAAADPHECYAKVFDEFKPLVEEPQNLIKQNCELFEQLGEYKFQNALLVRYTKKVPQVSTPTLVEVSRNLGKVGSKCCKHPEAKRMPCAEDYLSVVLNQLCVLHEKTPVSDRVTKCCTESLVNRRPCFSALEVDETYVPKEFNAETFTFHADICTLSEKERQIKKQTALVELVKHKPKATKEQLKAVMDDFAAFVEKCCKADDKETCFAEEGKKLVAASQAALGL

Kd for albumin (depending on total fatty acid concentration, Curry, Brick et al. 1999)	Kd (read-out: dissociation constant Kd for albumin, Paal, Muller et al. 2001) [µM]	Structure (SMILES)
in the range of μM to nM	–	CCCCCCCCCCCCCCCCCC(=O)O [stearic acid]
–	~10	CC(=O)O[C@H]1C(=O)[C@@]2(C)[C@H]([C@H](OC(=O)c3ccccc3)[C@]3(O)C[C@H](OC(=O)[C@H](O)[C@@H](NC(=O)c4ccccc4)c4ccccc4)C(C)=C1C3(C)C)[C@]1(OC(C)=O)CO[C@@H]1C[C@@H]2O [PTX, paclitaxel]
